{
  "source": "patent EP3325012B1",
  "about": "“CINEOLE-CONTAINING COMPOSITION FOR TREATING NOSE POLYPS” (Maria Clementine Martin Klosterfrau Vertriebsgesellschaft …, priority 2015, dated 2017)",
  "key": {"Polyposis-Primärgewebe": {"system": "Polyposis-Primärgewebe", "test": "Cytokine release from polyposis primary tissue", "assay_type": "cell-based, Mensch", "conditions": "incubation of primary tissue"}, "beta-Catenin": {"system": "beta-Catenin", "test": "Anti-(active-)beta-catenin immunohistochemistry on polyp single-cell suspensions (chamber slides)", "assay_type": "cell-based, Mensch", "conditions": "24 h incubation", "procedure": "Im entzündlichen Infiltrat des Polyposisgewebes ließ sich immunhistochemisch nukleäres beta-Catenin nachweisen.\nEs wurde eine Anti-Active-beta-Catenin-Immunhistochemie auf mit dem GSK-3-Inhibitor SB216763 für 24 h inkubierter Polyposis-Einzelzellsuspension (Chamber Slide) durchgeführt."}, "WIF-1": {"system": "WIF-1", "conditions": "Colon-Ca-Zelllinien; cited from earlier work"}},
  "note": "“Also recorded” adds a separate entry of the source.",
  "data": [
    {"smiles": "Cn1cc(C2=C(c3ccc(Cl)cc3Cl)C(=O)NC2=O)c2ccccc21", "note": "[SB216763]", "values": [
      {"measurement": "Ausschüttung von IL-6", "setting": "Polyposis-Primärgewebe", "value": "verminderte Ausschüttung"},
      {"measurement": "Ausschüttung von IL-8", "setting": "Polyposis-Primärgewebe", "value": "verminderte Ausschüttung"},
      {"measurement": "Akkumulation von beta-Catenin im Zytoplasma", "setting": "beta-Catenin", "value": "Akkumulation von beta-Catenin im Zytoplasma; also recorded: deutliche Anreicherung"},
      {"measurement": "Translokation von beta-Catenin in den Zellkern", "setting": "beta-Catenin", "value": "Translokation von beta-Catenin in den Zellkern"}
    ]},
    {"smiles": "CC(=O)Oc1ccccc1C(=O)O", "note": "[Acetylsalicylsäure]", "values": [
      {"measurement": "Regulation von WIF-1", "setting": "WIF-1", "value": "Hochregulation"}
    ]}
  ]
}
